± gives the standard deviation of the averaged measurements.
Columns and labels:
Details in all cases: 72 h
[1] = system: myeloid leukemia patient primary cells Pat.10; assay: cell viability (% survival relative to DMSO control); higher = less cytotoxic
Outline: (§1)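 Where an area under the curve appears, it was computed with the drc and PharmacoGx R packages from log-logistic fits. Those fits used four parameters. The underlying viability data came from CellTiter-Glo after 72 h, normalised to DMSO and 10 μM proteasome-inhibitor wells, with thawed, Ficoll-purified AML or CML patient mononuclear cells at 10,000 cells/well in RPMI 1640 with 10% FBS on 384-well plates pre-printed with 70 compounds at five tenfold concentrations (1–10,000 nM) in duplicate.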

[2] = system: myeloid leukemia patient primary cells Pat.11; assay: as above
Outline: as §1

[3] = system: myeloid leukemia patient primary cells Pat.15; assay: as above
Outline: as §1

[4] = system: myeloid leukemia patient primary cells Pat.4; assay: as above
Outline: as §1

[5] = system: myeloid leukemia patient primary cells Pat.14; assay: as above
Outline: as §1

[6] = system: myeloid leukemia patient primary cells Pat.5; assay: as above
Outline: as §1

[7] = system: myeloid leukemia patient primary cells Pat.13; assay: as above
Outline: as §1

[8] = system: myeloid leukemia patient primary cells Pat.12; assay: as above
Outline: as §1

[9] = system: myeloid leukemia patient primary cells Pat.2; assay: as above
Outline: as §1

[10] = system: myeloid leukemia patient primary cells Pat.8; assay: as above
Outline: as §1

[11] = system: myeloid leukemia patient primary cells Pat.9; assay: as above
Outline: as §1

[12] = system: myeloid leukemia patient primary cells Pat.3; assay: as above
Outline: as §1

[13] = system: myeloid leukemia patient primary cells Pat.7; assay: as above
Outline: as §1

[14] = system: myeloid leukemia patient primary cells Pat.1; assay: as above
Outline: as §1

HL-60 = assay: cell viability (% survival relative to DMSO control); higher = less cytotoxic
Outline: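 Four-parameter log-logistic fits in drc and PharmacoGx supplied area under the curve where it is given. Underlying viability came from CellTiter-Glo, normalised to DMSO and proteasome-inhibitor wells, with the proteasome inhibitor at 10 μM. HL-60 cells in RPMI 1640 plus 10% FBS had been rescreened against the full library at five tenfold concentrations of 1–10,000 nM, in duplicate on 384-well plates, with DMSO or 100 nM of one of three metabolic inhibitors, for 72 h at 37 °C, 5% CO2.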

K-562 = assay: cell viability (% survival relative to DMSO control, bortezomib = 0%); higher = less cytotoxic
Outline: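 Reported values are percent survival from duplicate wells, averaged. Fifteen myeloid leukaemia cell lines were treated in 384-well plates with compounds at 1, 10, 100, 1000 or 10000 nM for 72 h at 37 °C in 5% CO2. Signals from CellTiter-Glo luminescence were scaled with vehicle as 100% and a 10 µM positive control as 0%.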

COc1cc(/C=C/C(=O)N2CCC=CC2=O)cc(OC)c1OC [Piperlongumine]
cell viability [%]
Details | 1 nM | 10 nM | 100 nM | 1000 nM | 10000 nM
K-562 | 102 | 91.5 | 106 | 77.3 | 0.672
[1] | 79.5 | 77.8 | 71.8 | 45.5 | > 100
[2] | 94.1 | 98.5 | > 100 | > 100 | 5.04
[3] | 84 | 96.2 | 98.5 | 70.3 | 1.42
[4] | 82.6 | 88.8 | 68.2 | 53.9 | < 0
[5] | 60.5 | 98.5 | 68.7 | 44.8 | 6.11
[6] | 6.78 | 82.5 | 13.4 | 11.1 | 10.1
[7] | 81.8 | 98.3 | 76 | 69 | 21.2
[8] | 99.6 | 88.9 | 95.2 | 80.4 | 3.26
[9] | 90.5 | 98.5 | 93.3 | 93.6 | 4.56
[10] | 79.2 | 89.3 | 79.2 | 77.1 | 0.503
[11] | 9.44 | 76.7 | 31.8 | 39 | 7.88
[12] | 60 | > 100 | 84.6 | 51.3 | 3.72
[13] | 52 | > 100 | 69.9 | 78.6 | 57
[14] | 93.4 | 84.5 | 70.3 | 75.6 | 3.43

cell viability [%], HL-60
Details | 0.001 µM | 0.01 µM | 0.1 µM | 1 µM | 10 µM
co-treatment: AZD3965 100 nM | 101 ± 2.1 | 104 ± 7.3 | 102 ± 6.9 | 99.9 ± 3.3 | -0.192 ± 0.13
co-treatment: DMSO vehicle | 98.08 ± 0.7 | 100.5 ± 0.58 | 102.8 ± 0.73 | 97.9 ± 1.8 | -0.533 ± 0.36
co-treatment: GSK2194069 100 nM | 101 ± 4.2 | 102 ± 8.6 | 104.6 ± 1 | 87.9 ± 2.8 | -0.0941 ± 0.82
co-treatment: pictilisib 100 nM | 97.3 ± 5 | 94.8 ± 5.8 | 94.9 ± 3 | 83.8 ± 8.6 | 3.95 ± 4.7

O=C1c2cc([N+](=O)[O-])ccc2-n2c1nc1ccccc1c2=O [GNF-Pf-3777]
cell viability [%]
Details | 1 nM | 10 nM | 100 nM | 1000 nM | 10000 nM
K-562 | 102 | 100 | 103 | 56.2 | 4.1
[1] | 61.7 | 47.7 | 77.9 | 36.6 | 15.5
[2] | > 100 | 97.9 | 94 | 86.8 | 64.4
[3] | 90.6 | 89.1 | 96.8 | 87.9 | 40.2
[4] | 97.7 | 97 | 96 | 79.5 | 19
[5] | 96.8 | 95 | 96.8 | 85.7 | 54.2
[6] | > 100 | 63 | 73 | 36.1 | 3.37
[7] | 94.2 | 96.4 | 96.6 | 80.8 | 35.8
[8] | 98 | 96.3 | 99.1 | 99.3 | 78.6
[9] | 98.3 | 93.2 | 95.5 | 93.7 | 62.3
[10] | 97.5 | 94.9 | 88.4 | 84 | 64.9
[11] | 82.9 | 68.9 | 60.9 | 63.4 | 25.8
[12] | 93.1 | 86.9 | 72.7 | 46.2 | 20
[13] | 95.9 | 70.7 | > 100 | 97.1 | 21.8
[14] | > 100 | 94.8 | 86.5 | 77.2 | 65.1

cell viability [%], HL-60
Details | 0.001 µM | 0.01 µM | 0.1 µM | 1 µM | 10 µM
co-treatment: AZD3965 100 nM | 103 ± 4.7 | 100 ± 1.4 | 105 ± 0.55 | 89 ± 6 | 2.3 ± 0.41
co-treatment: DMSO vehicle | 94.3 ± 0.29 | 102 ± 5.9 | 103 ± 3.4 | 91.6 ± 6 | 12.6 ± 4.2
co-treatment: GSK2194069 100 nM | 103 ± 6 | 98.4 ± 12 | 88.8 ± 4 | 80.8 ± 10 | 8.8 ± 9.7
co-treatment: pictilisib 100 nM | 95.5 ± 2.2 | 101.2 ± 0.8 | 92.2 ± 6.2 | 78.63 ± 0.57 | 6.29 ± 5.4

O=C1O/C(=C/Br)CCC1c1cccc2ccccc12 (stereo not given) [Bromoenol Lactone]
cell viability [%]
Details | 1 nM | 10 nM | 100 nM | 1000 nM | 10000 nM
K-562 | 102 | 106 | 98.1 | 93.5 | 46.9
[1] | 63.6 | 47.6 | 46.5 | 10.6 | < 0
[2] | > 100 | 94.6 | 99.2 | 87.7 | 57.2
[3] | 89.3 | 91.6 | 96.4 | 89 | 3.92
[4] | 64.7 | 93.3 | 85.8 | 53.4 | 3.26
[5] | 78.2 | 83.5 | 73.9 | 21.8 | < 0
[6] | 44.7 | 34.4 | 7.92 | 1.18 | 2.24
[7] | 80.2 | 89.3 | 89.3 | 82.2 | 28.1
[8] | 100 | > 100 | 92.4 | 90.9 | 33.9
[9] | 96.5 | > 100 | 97.2 | 93.6 | 29.4
[10] | 75.9 | 91.1 | 70 | 81.3 | 30
[11] | 66 | 39.3 | 46.4 | 5.6 | 0.492
[12] | 89.5 | 82.1 | 62.3 | 1.83 | < 0
[13] | 57.6 | 75.8 | 76.4 | 30 | < 0
[14] | 68.2 | 90.4 | 79.3 | 69.3 | 14.6

cell viability [%], HL-60
Details | 0.001 µM | 0.01 µM | 0.1 µM | 1 µM | 10 µM
co-treatment: AZD3965 100 nM | 95.1 ± 10 | 97 ± 6.7 | 98.2 ± 5.9 | 96.796 ± 0.025 | 93.5 ± 3.1
co-treatment: DMSO vehicle | 100 ± 2.4 | 99.8 ± 7.1 | 100 ± 1.4 | 96.4 ± 5.3 | 87.9 ± 2.6
co-treatment: GSK2194069 100 nM | 90.2 ± 14 | 92.4 ± 9.3 | 108 ± 7.8 | 89.2 ± 2.9 | 115 ± 20
co-treatment: pictilisib 100 nM | 96.5 ± 35 | 106 ± 18 | 110 ± 9.4 | 101.3 ± 0.12 | 104 ± 13

Reference: the supplement of paper PMC8671470
